The compounds below were run against PDE10 from pig striatum (Sus scrofa, UniProt A0A287B941) (assay: Inhibition of PDE10 from pig striatum ([3H]-cAMP SPA)). Conditions: Table 8; read-out: PDE10 pig IC50.
Assay type: biochemical
Method: Phosphodiesterase isoenzyme 10 (PDE10) activity was determined in preparations of human recombinant PDE10A and PDE10 from pig striatum, respectively.
Striatum from male hybrid pigs (150 kg) were collected and frozen at −70° C.
At the day of preparation 0.5 g striatum was homogenised in 10 ml 50 mM Tris/Mg-buffer at 4° C. and centrifuged for one hour at 100000 g. The supernatant was removed and the pellet was resuspended in the same buffer, but containing 1% Triton and incubated for 45 min at 4° C. The membrane fraction was applied onto a 5 ml Hi Trap™ QHP column at the Akta-FPLC. After washing the column the bound PDE protein was eluted with an increasing sodium chloride gradient (O mM-500 mM sodium chloride) in 50 mM Tris/Mg-buffer at 4° C. in the presence of 1% Triton. […] The fractions with PDE10-activity were pooled and frozen in aliquots until use at −20° C.
(§1) PDE10 activity was determined in a one step procedure in microtiterplates. […] Nonspecific activity was tested without the enzyme. The reaction was initiated by addition of the substrate solution and was carried out at 37° C. for 30 minutes. Enzymatic activity was stopped by addition of 25 μl YSi-SPA-beads (Amersham-Pharmacia). One hour later the mixture was measured in a liquid scintillation counter for microtiterplates (Microbeta Trilux). To pipette the incubation mixture a robot Biomek (Fa. Beckman) is used. […] For determination of IC50 values the Hill-plot, 2-parameter-model, was used.
The phosphodiesterase isoenzyme 10 (PDE10) activity was determined in preparations of rat, pig and guinea pig striatum respectively. Striatum from male Wistar rats (180-200 g), male hybrid pigs (150 kg) and male guinea pigs (CRL (HA), 500 g) respectively were collected and frozen at −70° C.
At the day of preparation 0.5 g striatum was homogenized in 10 ml 50 mM Tris/Mg-buffer at 4° C. and centrifuged for one hour at 100000 g. The supernatant is called the cytosolic fraction and was removed and stored on ice. The pellet was resuspended in the same buffer, but containing 1% Triton and incubated for 45 min at 4° C. Both fractions were independently applied onto a 5 ml Hi Trap™ QHP column at the Akta-FPLC. After washing the columns the bound PDE protein was eluted with an increasing sodium chloride gradient (0 mM-500 mM sodium chloride) in 50 mM Tris/Mg-buffer at 4° C. for the cytosolic fraction and in the presence of 1% Triton for the membrane fraction. […] The fractions with PDE10-activity were pooled and frozen in aliquots until use at −20° C.
as §1, with “YSi-SPA beads” for “YSi-SPA-beads”

Row | IC50 [nM] | Compound
1 | < 10 | COc1cccc(-c2nc(C)c3c(C)nc4ccc(OC)nc4n23)c1 [Example 62, 2-Methoxy-9-(3-methoxyphenyl)-6,7-dimethylimidazo[1,5-a]pyrido[3,2-e]pyrazine]
2 | 10 to 100 | COc1ccc2nc(C)c3c(C)nc(-c4cccc(OC(F)(F)F)c4)n3c2n1 [Example 63, 2-Methoxy-6,7-dimethyl-9-[3-(trifluoromethoxy)phenyl]imidazo[1,5-a]pyrido[3,2-e]pyrazine]
3 | 10 to 100 | COc1ccc2nc(C)c3c(C)nc(-c4ccc(OC(F)(F)F)cc4)n3c2n1 [Example 64, 2-Methoxy-6,7-dimethyl-9-[4-(trifluoromethoxy)phenyl]imidazo[1,5-a]pyrido[3,2-e]pyrazine]
4 | < 10 | COc1ccc2nc(C)c3c(C)nc(-c4cccc(C)c4)n3c2n1 [Example 65, 2-Methoxy-6,7-dimethyl-9-(3-methylphenyl)imidazo[1,5-a]pyrido[3,2-e]pyrazine]
5 | 10 to 100 | COc1ccc2nc(C)c3c(C)nc(-c4cccc(C(F)(F)F)c4)n3c2n1 [Example 66, 2-Methoxy-6,7-dimethyl-9-[3-(trifluoromethyl)phenyl]imidazo[1,5-a]pyrido[3,2-e]pyrazine]
6 | 10 to 100 | COc1ccc2nc(C)c3c(C)nc(-c4ccc(C(F)(F)F)cc4)n3c2n1 [Example 67, 2-Methoxy-6,7-dimethyl-9-[4-(trifluoromethyl)phenyl]imidazo[1,5-a]pyrido[3,2-e]pyrazine]
7 | 10 to 100 | COc1ccc2nc(C)c3c(C)nc(-c4cccs4)n3c2n1 [Example 68, 2-Methoxy-6,7-dimethyl-9-(2-thienyl)imidazo[1,5-a]pyrido[3,2-e]pyrazine]
8 | < 10 | COc1ccc2nc(C)c3c(C)nc(-c4cscc4C)n3c2n1 [Example 69, 2-Methoxy-6,7-dimethyl-9-(4-methyl-3-thienyl)imidazo[1,5-a]pyrido[3,2-e]pyrazine]
9 | 10 to 100 | COc1ccc2nc(C)c3c(C)nc(-c4ccccc4-c4ccccc4)n3c2n1 [Example 70, 9-Biphenyl-2-yl-2-methoxy-6,7-dimethylimidazo[1,5-a]pyrido[3,2-e]pyrazine]
10 | 10 to 100 | COc1ccc2nc(C)c3c(C)nc(-c4cccc(-c5ccccc5)c4)n3c2n1 [Example 71, 9-Biphenyl-3-yl-2-methoxy-6,7-dimethylimidazo[1,5-a]pyrido[3,2-e]pyrazine]
11 | > 100 | COc1ccc2nc(C)c3c(C)nc(-c4ccc(-c5ccccc5)cc4)n3c2n1 [Example 72, 9-Biphenyl-4-yl-2-methoxy-6,7-dimethylimidazo[1,5-a]pyrido[3,2-e]pyrazine]
12 | 10 to 100 | COc1ccc2nc(C)c3c(C)nc(-c4cccc(C#N)c4)n3c2n1 [Example 73, 3-(2-Methoxy-6,7-dimethylimidazo[1,5-a]pyrido[3,2-e]pyrazin-9-yl)benzonitrile]
13 | 10 to 100 | COc1ccc2nc(C)c3c(C)nc(-c4ccc(C#N)cc4)n3c2n1 [Example 74, 4-(2-Methoxy-6,7-dimethylimidazo[1,5-a]pyrido[3,2-e]pyrazin-9-yl)benzonitrile]
14 | 10 to 100 | COc1ccc2nc(C)c3c(C)nc(C#Cc4ccccc4)n3c2n1 [Example 75, 2-Methoxy-6,7-dimethyl-9-(phenylethynyl)imidazo[1,5-a]pyrido[3,2-e]pyrazine]
15 | > 100 | COc1ccc2nc(C)c3c(C)nc(C#Cc4ccc(F)cc4)n3c2n1 [Example 76, 9-[(4-Fluorophenyl)ethynyl]-2-methoxy-6,7-dimethylimidazo[1,5-a]pyrido[3,2-e]pyrazine]
16 | 10 to 100 | COc1ccc(C#Cc2nc(C)c3c(C)nc4ccc(OC)nc4n23)cc1 [Example 77, 2-Methoxy-9-[(4-methoxyphenyl)ethynyl]-6,7-dimethylimidazo[1,5-a]pyrido[3,2-e]pyrazine]
17 | < 10 | COc1ccc2nc(C)c3c(C)nc(-c4cc(C)ccc4Cl)n3c2n1 [Example 78, 9-(2-Chloro-5-methylphenyl)-2-methoxy-6,7-dimethylimidazo[1,5-a]pyrido[3,2-e]pyrazine]
